Patent US10376515B2, “Analogs of adenosine monophosphate (AMP) as inhibitors of ubiquitin-like modifier-activating enzyme ATG7” (Northwestern University, priority 2016, dated 2019)
Entries after “also recorded” stand apart in the source; their conditions may differ.

Columns and labels:
A549 cells = test: In-gel fluorescent detection of probe-labeled proteomes in live A549 cells; format: cell-based; settings: 10 μM, 2 hours; for cell permeability and labeling of proteins in live cells: rhodamine azide click, in-gel fluorescence
Experimental: We investigated the labeling of proteins with the developed probes inside of live cells. To this end, A549 cells were treated with 10 μM of compounds 1, 2, 3, and 5 for 2 hours. Then, the lysate was treated with click reaction mixtures containing rhodamine azide.
A549 cells were grown in RPMI medium (Life Technologies) supplemented with 10% fetal bovine serum in 6-well plates. Confluent A549 cells (9.6 cm^2 per condition in 6-well plates) were washed with Dulbecco's Phosphate-Buffered Saline (DPBS, 3 mL) and the growth medium was replaced with RPMI medium containing each probe. After 2 h incubation time at 37° C., cells were washed with DPBS (3 mL). 160 μL of lysis buffer containing Tris HCl (25 mM, pH 7.6), NaCl (150 mM), 1% NP40, 1% sodium deoxycholate, 0.1% SDS, and protease inhibitor cocktail for mammalian cells (Sigma-Aldrich, 1:100 v/v) was added to each well of the 6-well plates, and cells were lysed on ice for 10 min. The gathered lysate was flown through 21G syringe for the complete breakdown. The complete lysis of the cells was monitored using Carl Zeiss Primo Vert inverted microscope. 10 μL of each cell lysate was treated with sodium dodecyl sulfate (final concentration 1%), followed by the incubation with the click chemistry reagents (CuSO4 (final conc. 1 mM), TBTA (final conc. 100 μM), sodium ascorbate (final conc. 1 mM) and Azide-Fluor-585 (final conc. 100 μM) for 30 min. Proteins were resolved by 10% SDS-PAGE, and subjected to in-gel scanning fluorescence imaging to visualize the covalent adducts. Total proteins in the gel were then visualized by staining the gel with Instant Blue™.

[1] = molecular target: T1, Human recombinant ATG7 protein (Homo sapiens, UniProt O95352); test: Labeling of ATG7 with probes in vitro (click chemistry, in-gel fluorescence); format: binding; settings: 3 hours; for labeling efficiency of ATG7 (intensity of the fluorescent bands): catalytically active ATG7 (0.5 μM), increasing probe concentrations, click chemistry, in-gel fluorescence
T1 construct: purchased R&D Systems
T1 sequence (O95352 1-703): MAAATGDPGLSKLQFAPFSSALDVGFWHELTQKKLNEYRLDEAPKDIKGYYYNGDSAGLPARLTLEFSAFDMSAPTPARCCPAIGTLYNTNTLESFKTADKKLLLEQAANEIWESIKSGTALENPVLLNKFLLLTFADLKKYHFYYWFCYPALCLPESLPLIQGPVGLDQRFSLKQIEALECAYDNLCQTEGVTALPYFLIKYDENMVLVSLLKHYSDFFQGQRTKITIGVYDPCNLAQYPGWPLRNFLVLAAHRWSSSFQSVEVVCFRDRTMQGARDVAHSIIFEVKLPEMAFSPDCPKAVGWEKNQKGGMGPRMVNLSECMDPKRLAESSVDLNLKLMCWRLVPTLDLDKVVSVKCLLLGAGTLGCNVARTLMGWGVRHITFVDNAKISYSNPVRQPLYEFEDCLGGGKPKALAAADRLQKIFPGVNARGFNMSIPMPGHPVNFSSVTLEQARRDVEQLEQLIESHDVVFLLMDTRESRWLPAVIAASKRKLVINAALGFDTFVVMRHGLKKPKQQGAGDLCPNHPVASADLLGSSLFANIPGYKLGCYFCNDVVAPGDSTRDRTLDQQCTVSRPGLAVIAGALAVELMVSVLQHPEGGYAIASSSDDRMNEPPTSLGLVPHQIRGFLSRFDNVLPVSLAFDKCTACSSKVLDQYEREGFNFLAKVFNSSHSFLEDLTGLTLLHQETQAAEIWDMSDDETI
Experimental: Following the synthesis, we incubated probes 1, 2, and 3 with catalytically active ATG7 (0.5 μM) for 3 hours. Then the click chemistry was followed to measure the levels of small molecule labeled ATG7. The intensity of the fluorescent bands was interpreted as the labeling efficiency of the probes.
(§1) Subsequently, increasing concentrations of compounds 4 and 5 were incubated with catalytically active ATG7 (0.5 μM) for 3 hours. […] We also conducted an ATP-competition reaction to test if compounds 4 and 5 utilize the ATP binding site for the covalent labeling. ATG7 was incubated with compound 4 or 5 in the presence or absence of ATP (100 μM) (FIG. 5B).
(§2) General Information. Human recombinant ATG7 protein was purchased from R&D Systems and used without further purification. In-gel fluorescence imaging was performed on a Typhoon 9600 (GE Healthcare).
(§3) Labeling of ATG7 with probes 1, 2, 3, 4, and 5 in vitro. ATG7 (0.4 μM) and TCEP (100 μM) in buffer containing HEPES (25 mM, pH 7.6), NaCl (50 mM), and MgCl2 (4 mM) were treated with increasing concentrations of each probe at room temperature (10 μL total volume) for 2 h. The reaction mixtures were treated with 1 μl of 10% SDS followed by 4 μL of click reaction mixture: CuSO4 (final conc. 1 mM), TBTA (final conc. 100 μM), sodium ascorbate (final conc. 1 mM), and Azide-Fluor-585 (final conc. 100 μM). The reaction mixture was incubated for 30 min at r.t., followed by the addition of 3 μL of 6× Laemmli loading buffer, and resolved by 12% SDS-PAGE. The bottom of the gel was cut to eliminate the excessive amount of Azide-Fluor-585. The acrylamide gel was kept in 50% ddH2O, 40% EtOH and 10% Acetic acid solution until it was subjected to the in-gel scanning fluorescence imaging (Typhoon 9600, GE Healthcare). The proteins in the gel were then visualized with Instant Blue™.

[2] = molecular target: T1, Human recombinant ATG7 protein; test: ATP-competition reaction for covalent labeling of ATG7; format: binding; settings: ATP (100 μM) present or absent
Experimental: as §1, §2
as §3, with “The bottom of the gel was cut to eliminate the excessive amount of Azide-Fluor-585.” left out, “The proteins in the gel were then visualized with Instant Blue™.” left out

C#CCCCCNS(=O)(=O)C=C [Compound 1]
cell permeability and labeling of proteins in live cells (A549 cells): cell permeable and able to label proteins in live cells
labeling efficiency of ATG7 (intensity of the fluorescent bands) [1]: inefficient labeling
labeling of ATG7 at 10 μM concentration ([1]; probe 10 μM, ATG7 (0.5 μM)): little labeling

C#CCNc1ncnc2c1ncn2[C@@H]1O[C@H](CNS(=O)(=O)C=C)[C@@H](O)[C@H]1O [Compound 2]
cell permeability and labeling of proteins in live cells (A549 cells): cell permeable and able to label proteins in live cells

C#Cc1cccc(Nc2ncnc3c2ncn3[C@@H]2O[C@H](CNS(=O)(=O)C=C)[C@@H](O)[C@H]2O)c1 [Compound 3]
cell permeability and labeling of proteins in live cells (A549 cells): cell permeable and able to label proteins in live cells
labeling efficiency of ATG7 (intensity of the fluorescent bands) [1]: higher labeling efficiency than 2; also recorded: much higher labeling efficiency than propargyl alkyne containing probes; also recorded: most potently labels ATG7

C#CCNc1ncnc2c1ncn2[C@@H]1O[C@H](COS(=O)(=O)C=C)[C@@H](O)[C@H]1O [Compound 4]
labeling of ATG7 in the presence of ATP compared to ATP free conditions [2]: significantly dropped; also recorded: utilize ATP binding site for the ATG7 labeling

C#Cc1cccc(Nc2ncnc3c2ncn3[C@@H]2O[C@H](COS(=O)(=O)C=C)[C@@H](O)[C@H]2O)c1 [Compound 5]
off-targets (non-specifically labeled proteins) in live cells (A549 cells): more numbers of off-targets when compared with compound 3; also recorded: strongest off target effects
cell permeability and labeling of proteins in live cells (A549 cells): cell permeable and able to label proteins in live cells
labeling efficiency of ATG7 (intensity of the fluorescent bands) [1]: stronger intensity of the fluorescent bands than compound 4-treated ATG7; also recorded: much higher labeling efficiency than propargyl alkyne containing probes; also recorded: greater labeling potency than compound 4
labeling of ATG7 in the presence of ATP compared to ATP free conditions [2]: significantly dropped; also recorded: utilize ATP binding site for the ATG7 labeling
